Earlier results, collected in patent publication US6919335B2, “Heterocycles that are inhibitors of IMPDH enzyme” (Bristol-Myers Squibb Co., priority 2000, dated 2005).
Like-named read-outs stand apart in the source and are kept apart here.

How the values were obtained:
[1] = test system: antigen-specific T lymphocyte responses; conditions: for synergistic effect on inhibition of antigen-induced proliferation: in combination with Rol 10^−7 M; for approximate IC10: inhibition of antigen-induced proliferation; for % inhibition of proliferation: Rol plus MPA
[2] = test system: proinflammatory cytokines (IL-2, IL-4, and IFN); conditions: RT-PCR; Rol 10^−7 M, MPA 10^−8 M, or the combination
IMPDH types I and II = conditions: RT-PCR, low and high concentrations, alone or both

Structure (SMILES)	synergistic effect on inhibition of antigen-induced proliferation [1]	downregulation in the generation of proinflammatory cytokines [2]	gene expression for IMPDH types I and II (IMPDH types I and II)	approximate IC10 [1]	% inhibition of proliferation ([1]; with deoxyguanosine (antagonist of MPA on IMPDH), p<0.05)	% inhibition of proliferation ([1]; without deoxyguanosine)
C=CC[C@@H]1/C=C(\C)C[C@H](C)C[C@H](OC)[C@H]2O[C@@](O)(C(=O)C(=O)N3CCCC[C@H]3C(=O)O[C@H](/C(C)=C/[C@@H]3CC[C@@H](O)[C@H](OC)C3)[C@H](C)[C@@H](O)CC1=O)[C@H](C)C[C@@H]2OC [tacrolimus]	little or no synergistic effect	–	–	–	–	–
COc1ccc(C2CNC(=O)C2)cc1OC1CCCC1 (stereo not shown) [rolipram, 4-[3-(cyclopentyloxy)-4-methoxy-phenyl]-2-pyrrolidinone]	–	no significant downregulation	remained unaffected	~10^−7 M	–	–
CCCC(=O)Nc1ncnc2c1ncn2[C@@H]1O[C@@H]2COP(=O)(O)O[C@H]2[C@H]1OC(=O)CCC [dibuteryl-cAMP]	–	–	–	~2e-06 M	–	–
COc1c(C)c2c(c(O)c1C/C=C(\C)CCC(=O)O)C(=O)OC2 [MPA, mycophenolic acid]	marked synergistic effect	no significant downregulation	remained unaffected	–	35±12%	81±16%
